Data reported in US20120115845A1, “THERAPEUTIC AGENTS” (priority 2007, published 2012).

Columns and labels:
human GHS receptor [1] = target: T1, human GHS receptor (Homo sapiens, UniProt Q92847); assay: h bind IC50 (binding assay, Table 1); details: human receptor; Table 1
human GHS receptor [2] = target: T1, human GHS receptor; assay: Ghrelin IP1 agonist assay (IP1 HTRF); format: cell-based; parameters: expressed in transfected cells; host or cells: HEK293s; details: for Emax: 2 h, agonist effect as % maximal effect of GHRP-6 (5 μM), read-out: h IP1 ag %; for EC50: HEK293s cells stably expressing human GHS receptor, 2 hours at 37° C., read-out: h IP1 ag EC50
Method: In HEK293s cells stably expressing human GHS receptor (In-house), agonist activity was assessed by measuring intracellular myo-Inositol 1 phosphate (IP1) using the IP1 HTRF assay kit (Cisbio International).
Cells were harvested using accutase (Sigma), spun down at 1000 rpm for 5 minutes and resuspended in stimulation buffer (as above) containing 0.02% fatty acid free BSA at a density of 1.43E6cells/ml.
Agonist effect of the compound was expressed as % maximal effect of GHRP-6 (5 μM: Bachem). Sigmoidal curves were fitted by Origin 7.5 Client and EC50 values determined.

T1 sequence (Q92847 whole entry): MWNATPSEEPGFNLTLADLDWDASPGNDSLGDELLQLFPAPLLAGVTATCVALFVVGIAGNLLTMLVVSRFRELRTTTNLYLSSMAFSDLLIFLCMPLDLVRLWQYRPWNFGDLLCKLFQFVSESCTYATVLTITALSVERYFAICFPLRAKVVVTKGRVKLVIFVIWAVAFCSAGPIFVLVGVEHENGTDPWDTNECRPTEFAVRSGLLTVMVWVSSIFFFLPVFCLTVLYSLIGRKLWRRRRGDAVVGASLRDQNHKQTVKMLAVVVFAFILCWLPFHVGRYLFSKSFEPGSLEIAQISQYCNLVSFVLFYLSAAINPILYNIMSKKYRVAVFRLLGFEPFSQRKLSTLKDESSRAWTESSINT

| IC50 (human GHS receptor [1]) | Emax (human GHS receptor [2]) | EC50 (human GHS receptor [2]) | Structure (SMILES) |
| --- | --- | --- | --- |
| 7.91 nM | 80.9% | ≥ 20000 nM | COc1cc(Cl)c(C(=O)NC(=O)Nc2nc3ccc(S(=O)(=O)C4CCN(C)CC4)cc3s2)cc1N1CCOCC1 [Example 255, 2-chloro-4-methoxy-N-(6-(1-methylpiperidin-4-ylsulfonyl)benzo [d]thiazol-2-ylcarbamoyl)-5-morpholino-benzamide] |
| 296 nM | 44% | 18.6 nM | O=C(NC(=O)c1ccccc1Cl)Nc1nc2ccc(S(=O)(=O)[C@H]3CCNC3)cc2s1 [Example 171, 2-Chloro-N-[[6-[(3S)-pyrrolidin-3-yl]sulfonylbenzothiazol-2-yl]carbamoyl]benzamide] |
| 448 nM | 0% | ≥ 25000 nM | CS(=O)(=O)c1ccc2nc(NC(=O)NC(=O)c3cc(S(N)(=O)=O)ccc3Cl)sc2c1 [Example 138, 2-Chloro-N-[(6-methylsulfonylbenzothiazol-2-yl)carbamoyl]-5-sulfamoyl-benzamide] |
| 1270 nM | 14.1% | 335 nM | COc1ccc(C(=O)NC(=O)Nc2nc3ccc(S(C)(=O)=O)cc3s2)c(Cl)c1OC [Example 111, 2-Chloro-3,4-dimethoxy-N-[(6-methylsulfonylbenzothiazol-2-yl)carbamoyl]benzamide] |
| 14.4 nM | 69% | 9.58 nM | O=C(NC(=O)c1ccccc1Cl)Nc1nc2ccc(S(=O)(=O)CCCN3CCNCC3)cc2s1 [Example 206, 2-Chloro-N-[[6-(3-piperazin-1-ylpropylsulfonyl)benzothiazol-2-yl]carbamoyl]benzamide] |
| 32.6 nM | 52.1% | 12.4 nM | NC1CC(S(=O)(=O)c2ccc3nc(NC(=O)NC(=O)c4ccccc4Cl)sc3c2)C1 (stereo not drawn) [Example 214, N-[[6-(3-Aminocyclobutyl)sulfonylbenzothiazol-2-yl]carbamoyl]-2-chloro-benzamide] |
| 653 nM | 15.5% | 3680 nM | CSc1ccccc1C(=O)NC(=O)Nc1nc2ccc(S(C)(=O)=O)cc2s1 [Example 132, 2-Methylsulfanyl-N-[(6-methylsulfonylbenzothiazol-2-yl)carbamoyl]benzamide] |
| 0.62 nM | 9.32% | ≥ 20000 nM | COc1cc(Cl)c(C(=O)NC(=O)Nc2nc3ccc(S(=O)(=O)CCCN4CCN(C)CC4)cc3s2)cc1-n1cccn1 [Example 242, 2-chloro-4-methoxy-N-(6-(3-(4-methylpiperazin-1-yl)propylsulfonyl)benzo[d]thiazol-2-ylcarbamoyl) 5-(1H-pyrazol-1-yl)benzamide] |
| 95.8 nM | 24.8% | 62.1 nM | CC(=O)NC1CC(S(=O)(=O)c2ccc3nc(NC(=O)NC(=O)c4ccccc4Cl)sc3c2)C1 (stereo not drawn) [Example 223, N-[[6-(3-Acetamidocyclobutyl)sulfonylbenzothiazol-2-yl]carbamoyl]-2-chlorobenzamide] |
| 39.1 nM | 10.4% | ≥ 20000 nM | CN(C)[C@@H]1CCN(c2ccc(Cl)c(C(=O)NC(=O)Nc3nc4ccc(S(C)(=O)=O)cc4s3)c2)C1 [Example 233, (R)-2-chloro-5-(3-(dimethylamino)pyrrolidin-1-yl)-N-(6-(methylsulfonyl)benzo[d]thiazol-2-ylcarbamoyl) benzamide] |
| 70.4 nM | 36.9% | 118 nM | CC(C)(C)OC(=O)N1CCC(CS(=O)(=O)c2ccc3nc(NC(=O)NC(=O)c4ccccc4Cl)sc3c2)CC1 [Example 217, tert-Butyl 4-[[2-[(2-chlorobenzoyl)carbamoylamino]benzothiazol-6-yl]sulfonylmethyl]piperidine-1-carboxylate] |
| 0.7 nM | 0% | > 25000 nM | Cc1ccnn1-c1ccc(Cl)c(C(=O)NC(=O)Nc2nc3ccc(S(=O)(=O)CCCN4CCN(C)CC4)cc3s2)c1 [Example 90, 2-Chloro-5-(5-methyl-1H-pyrazol-1-yl)-N-(6-(3-(4-methylpiperazin-1-yl)propylsulfonyl)benzothiazol-2-ylcarbamoyl)benzamide] |
| 197 nM | 21.5% | 217 nM | CC(C)c1ccccc1C(=O)NC(=O)Nc1nc2ccc(S(C)(=O)=O)cc2s1 [Example 136, N-[(6-Methylsulfonylbenzothiazol-2-yl)carbamoyl]-2-propan-2-yl-benzamide] |
| 1240 nM | 9.89% | 1370 nM | CC(C)N1CCC[C@H](COc2ccc(Cl)c(C(=O)NC(=O)Nc3nc4ccc(S(C)(=O)=O)cc4s3)c2)C1 [Example 228, (S)-2-chloro-5-((1-isopropylpiperidin-3-yl)methoxy)-N-(6-(methylsulfonyl)benzo[d]thiazol-2-ylcarbamoyl)benzamide] |
| 4.43 nM | 0% | ≥ 20000 nM | COc1cc(Cl)c(C(=O)NC(=O)Nc2nc3ccc(S(=O)(=O)C4CCN(C)CC4)cc3s2)cc1-n1cccn1 [Example 264, 2-chloro-4-methoxy-N-(6-(1-methylpiperidin-4-ylsulfonyl)benzo [d]thiazol-2-ylcarbamoyl) 5-(1H-pyrazol-1-yl)benzamide] |
| 0.4 nM | 0.0469% | ≥ 25000 nM | CCN(CC)CCCS(=O)(=O)c1ccc2nc(NC(=O)NC(=O)c3cc(-n4cccc4)ccc3Cl)sc2c1 [Example 71, 2-Chloro-N-[[6-(3-diethylaminopropylsulfonyl)benzothiazol-2-yl]carbamoyl]-5-pyrrol-1-yl-benzamide] |
| 53.8 nM | 16.4% | 52.1 nM | Cc1cc(CS(=O)(=O)c2ccc3nc(NC(=O)NC(=O)c4ccccc4Cl)sc3c2)no1 [Example 188, 2-Chloro-N-[[6-[(5-methyl-1,2-oxazol-3-yl)methylsulfonyl]benzothiazol-2-yl]carbamoyl]benzamide] |
| 64.4 nM | 24% | 29.2 nM | O=C(NC(=O)c1ccccc1Cl)Nc1nc2ccc(S(=O)(=O)CCN3CCOCC3)cc2s1 [Example 1, 2-Chloro-N-[[6-(2-morpholin-4-ylethylsulfonyl)benzothiazol-2-yl]carbamoyl]benzamide] |
| 56.1 nM | 36.6% | 320 nM | CS(=O)(=O)c1ccc2nc(NC(=O)NC(=O)c3ccccc3Oc3ccccc3)sc2c1 [Example 127, N-[(6-Methylsulfonylbenzothiazol-2-yl)carbamoyl]-2-phenoxy-benzamide] |
| 8.9 nM | 39.6% | 25.1 nM | O=C(NC(=O)c1ccccc1Cl)Nc1nc2ccc(S(=O)(=O)C3CCN(CC4CC4)CC3)cc2s1 [Example 182, 2-Chloro-N-[[6-[[1-(cyclopropylmethyl)-4-piperidyl]sulfonyl]benzothiazol-2-yl]carbamoyl]benzamide] |
| 742 nM | 15.1% | 772 nM | CS(=O)(=O)c1ccc2nc(NC(=O)NC(=O)c3ccccc3[N+](=O)[O-])sc2c1 [Example 104, N-[(6-Methylsulfonylbenzothiazol-2-yl)carbamoyl]-2-nitro-benzamide] |
| 10.1 nM | 4.99% | > 4870 nM | CN1CCN(CCCS(=O)(=O)c2ccc3nc(NC(=O)NC(=O)c4cc(OS(C)(=O)=O)ccc4Cl)sc3c2)CC1 [Example 92, 4-Chloro-3-(6-(3-(4-methylpiperazin-1-yl)propylsulfonyl)benzothiazol-2-ylcarbamoylcarbamoyl)phenyl methanesulfonate] |
| 306 nM | 19.3% | 27.6 nM | CS(=O)(=O)c1ccc2nc(NC(=O)NC(=O)c3ccc(F)cc3Cl)sc2c1 [Example 107, 2-Chloro-4-fluoro-N-[(6-methylsulfonylbenzothiazol-2-yl)carbamoyl]benzamide] |
| 0.3 nM | 18.1% | 7.24 nM | CN1CCN(CCCS(=O)(=O)c2ccc3nc(NC(=O)NC(=O)c4cc(C5CC5)ccc4Cl)sc3c2)CC1 [Example 94, 2-Chloro-5-cyclopropyl-N-(6-(3-(4-methylpiperazin-1-yl)propylsulfonyl)benzothiazol-2-ylcarbamoyl)benzamide] |
| 53.6 nM | 27.7% | 9.58 nM | CCN(CC)CCCCS(=O)(=O)c1ccc2nc(NC(=O)NC(=O)c3ccccc3Cl)sc2c1 [Example 211, 2-Chloro-N-[[6-(4-diethylaminobutylsulfonyl)benzothiazol-2-yl]carbamoyl]benzamide] |
| 1.2 nM | 36.2% | 6.92 nM | CN1CCCN(CCCS(=O)(=O)c2ccc3nc(NC(=O)NC(=O)c4ccccc4Cl)sc3c2)CC1 [Example 204, 2-Chloro-N-[[6-[3-(4-methyl-1,4-diazepan-1-yl)propylsulfonyl]benzothiazol-2-yl]carbamoyl]benzamide] |
| 66.9 nM | 39.7% | 69.2 nM | CCN1CC(S(=O)(=O)c2ccc3nc(NC(=O)NC(=O)c4ccccc4Cl)sc3c2)C1 [Example 185, 2-Chloro-N-[[6-(1-ethylazetidin-3-yl)sulfonylbenzothiazol-2-yl]carbamoyl]benzamide] |
| 21.5 nM | 41.7% | 11000 nM | CS(=O)(=O)c1ccc2nc(NC(=O)NC(=O)c3ccccc3Sc3ccccc3)sc2c1 [Example 133, N-[(6-Methylsulfonylbenzothiazol-2-yl)carbamoyl]-2-phenylsulfanyl-benzamide] |

| Structure (SMILES) | IC50 (human GHS receptor [1]) | Emax (human GHS receptor [2]) | EC50 (human GHS receptor [2]) |
| --- | --- | --- | --- |
| O=C(NC(=O)c1ccccc1Cl)Nc1nc2ccc(S(=O)(=O)CCN3CCC3)cc2s1 [Example 13, N-[[6-[2-(Azetidin-1-yl)ethylsulfonyl]benzothiazol-2-yl]carbamoyl]-2-chloro-benzamide] | 162 nM | 52.5% | 55.5 nM |
